Measurements from patent US10960007B2, “Pharmacologically active aryl-substituted pyrazolo[1,5-a]pyrimidine derivatives” (RICHTER GEDEON NYRT., priority 2017, dated 2021).

Columns and labels:
[1] = target: T1, GABAB receptor (Rattus norvegicus, UniProt O88871+Q9Z0U4); assay: In vitro [35S]GTPγS binding assay in rat cortical membranes; format: biochemical; settings: [35S]GTPγS binding, rat cortical membranes; read-out: In vitro PAM potency (PAM EC50)
T1 construct: from tissue; host or cells: rat brain cortex membranes
Description: In Vitro [^35S]GTPγS Binding Assay in Rat Cortical Membranes
Cortices of freshly harvested rat brains were dissected on an ice-cold surface and homogenized by a glass Dounce homogeniser immediately in ice-cold buffer containing 50 mM Tris, 5 mM MgCl2 and 1 mM EDTA (pH=7.6). Tissue homogenates were centrifuged at 40000 g for 15 min at 4° C. Membrane pellets were resuspended in the same buffer and membranes were incubated for 10 min at 30° C. in a shaking water bath to eliminate endogenous GABA. Homogenates were centrifuged again under the same conditions. The final pellets were resuspended in ice-cold buffer (pH=7.6) containing 50 mM Tris, 100 mM NaCl, 7 mM MgCl2, 1 mM EDTA and 1 mM dithiotreithol (DTT) to yield a concentration of 20 mg tissue weight/ml and frozen at −70° C. until use. The assay was done in a buffer containing 50 mM Tris (pH=7.4), 100 mM NaCl, 7 mM MgCl2, 1 mM EDTA and 1 mM DTT. Each assay tube contained 150 μL GDP (in a final concentration of 50 μM), 100 μL ligand and 125 μL of the membrane suspension (250 μg tissue/tube). The assay tubes were preincubated for 10 min at 30° C. to assure equilibrium. Nonspecific binding was determined in the presence of 10 μM GTPγS; basal binding was determined in the presence of buffer only. After addition of […] [^35S]GTPγS in a volume of 25 μL to the tubes, membranes were incubated for an additional 60 min at 30° C. The assay was terminated by rapid filtration through Packard UniFilter GF/B using a Packard harvester and washed four times with 1 ml ice-cold buffer. After drying the filters at 40° C. for 1 h, 40 μL Microscint (Packard) was added to the filters and radioactivity of the filters was determined by a TopCount NXT (PerkinElmer, Waltham, Mass.; Alper and Nelson, Eur. J. Pharmacol. 1998, 343, 303-312; Rinken et al, Biochem. Pharmacol. 1999, 57, 155-162). Data thus gathered were used to determine PAM EC50 values for each compound as primary in vitro activity end point.

[2] = tested on: adult rats; assay: Foot shock-induced ultrasonic vocalization (USV) in adult rats; format: in vivo, rat; settings: Rattus norvegicus, po; 10 mg/kg per os, 1 h before shocking, male Wistar rats
Description: Foot Shock-Induced Ultrasonic Vocalization (USV) in Adult Rats
(§1) Under stressful conditions, adult rats emit 22 kHz ultrasounds that can be reduced by various pharmacological treatments (De Vry et al, Eur. J. Pharmacol. 1993, 249, 331-339; Sanchez, Eur. J. Pharmacol. 2003, 463, 133-143). […] Therefore, a foot shock-induced vocalization paradigm in adult rats was used to assess in vivo efficacy of centrally acting GABAB receptor ligands. Behavioral measurements were carried out on male Wistar rats (200-250 g, Toxicoop, Hungary). Rats were housed in groups of four in plastic cages with a wire grid top in a temperature and light-controlled laboratory animal care unit (22±2° C., 12-h light/dark cycle, lights on at 6:00 AM) with ad libitum access to commercial pellet rat food and tap water. Investigations were approved by the Local Ethical Committee of Gedeon Richter Plc. and were carried out in strict compliance with the European Directive 2010/63/EU regarding the care and use of laboratory animals for experimental procedures and all efforts were made to minimize the number of animals as well as their suffering. In order to evoke emission of ultrasounds, animals were footshocked after a habituation period of 30 s (6 shocks, 1 s, 0.8 mA each, inter-shock interval 10 s) in a sound attenuated shocking chamber (Experimetria, 40×40×80 cm). […] Vocalizations were measured right after the last footshock for 10 min with a Metris Sonotrack system and the total time of vocalizations was registered. Vocalization of parallel vehicle treated animals was considered as control value and inhibition percent was calculated for each compound. At approximately 75 min after treatment and behavioral measurements, blood and brain samples were harvested in order to determine exposures associated with in vivo activity.

[3] = Plasma and brain exposure after USV measurement; format: in vivo; settings: rat, per os, about 75 min after treatment
Description: as §1

T1 sequence (O88871 41-940): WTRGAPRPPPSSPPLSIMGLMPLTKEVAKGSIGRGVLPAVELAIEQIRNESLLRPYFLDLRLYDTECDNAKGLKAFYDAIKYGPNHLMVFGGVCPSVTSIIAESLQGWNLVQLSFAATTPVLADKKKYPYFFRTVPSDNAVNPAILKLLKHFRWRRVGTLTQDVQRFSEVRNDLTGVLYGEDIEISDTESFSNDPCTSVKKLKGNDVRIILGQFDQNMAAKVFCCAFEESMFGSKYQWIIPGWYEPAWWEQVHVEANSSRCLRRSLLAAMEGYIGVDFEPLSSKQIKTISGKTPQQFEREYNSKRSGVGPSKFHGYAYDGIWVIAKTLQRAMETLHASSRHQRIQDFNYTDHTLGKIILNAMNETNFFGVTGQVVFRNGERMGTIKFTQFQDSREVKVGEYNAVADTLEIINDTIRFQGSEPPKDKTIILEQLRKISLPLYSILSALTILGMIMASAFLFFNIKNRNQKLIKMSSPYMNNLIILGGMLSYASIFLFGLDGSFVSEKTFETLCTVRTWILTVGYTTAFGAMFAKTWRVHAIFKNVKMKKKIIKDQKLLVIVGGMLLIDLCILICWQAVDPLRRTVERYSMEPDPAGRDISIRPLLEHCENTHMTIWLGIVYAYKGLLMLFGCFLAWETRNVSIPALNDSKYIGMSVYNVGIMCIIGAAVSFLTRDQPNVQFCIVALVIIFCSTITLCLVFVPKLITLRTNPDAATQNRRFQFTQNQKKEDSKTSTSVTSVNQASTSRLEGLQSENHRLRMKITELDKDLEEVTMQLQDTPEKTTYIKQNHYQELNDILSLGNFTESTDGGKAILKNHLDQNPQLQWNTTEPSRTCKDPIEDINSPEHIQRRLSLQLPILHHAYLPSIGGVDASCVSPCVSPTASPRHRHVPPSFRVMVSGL
T1 sequence (Q9Z0U4 17-960 limits assumed): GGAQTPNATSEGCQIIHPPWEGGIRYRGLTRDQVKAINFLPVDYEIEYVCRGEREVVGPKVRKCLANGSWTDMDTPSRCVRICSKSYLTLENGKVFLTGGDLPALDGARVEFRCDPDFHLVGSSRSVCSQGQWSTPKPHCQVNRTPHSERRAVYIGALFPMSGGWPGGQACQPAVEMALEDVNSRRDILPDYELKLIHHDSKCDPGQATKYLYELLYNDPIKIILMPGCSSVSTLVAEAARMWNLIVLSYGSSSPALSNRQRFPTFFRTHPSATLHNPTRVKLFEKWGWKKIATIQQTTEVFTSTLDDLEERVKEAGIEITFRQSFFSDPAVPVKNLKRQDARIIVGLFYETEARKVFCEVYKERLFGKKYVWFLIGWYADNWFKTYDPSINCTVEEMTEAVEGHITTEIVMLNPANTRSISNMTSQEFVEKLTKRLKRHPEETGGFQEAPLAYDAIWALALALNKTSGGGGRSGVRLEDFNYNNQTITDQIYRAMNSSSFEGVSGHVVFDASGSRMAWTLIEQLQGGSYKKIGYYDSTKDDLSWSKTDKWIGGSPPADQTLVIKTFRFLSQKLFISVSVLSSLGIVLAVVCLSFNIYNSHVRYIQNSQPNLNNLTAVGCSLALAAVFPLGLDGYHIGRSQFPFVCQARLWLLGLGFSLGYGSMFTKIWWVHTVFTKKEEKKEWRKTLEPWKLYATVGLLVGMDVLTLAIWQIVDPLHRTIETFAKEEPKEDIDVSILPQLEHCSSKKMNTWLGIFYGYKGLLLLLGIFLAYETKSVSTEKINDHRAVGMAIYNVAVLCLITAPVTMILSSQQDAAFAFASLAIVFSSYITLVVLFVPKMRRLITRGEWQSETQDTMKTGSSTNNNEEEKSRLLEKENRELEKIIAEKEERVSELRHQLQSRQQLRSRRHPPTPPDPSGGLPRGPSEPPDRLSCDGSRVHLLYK

Compound | EC50 [1] [nM] | inhibition in vivo at 10 mg/kg [2] [%] | Brain exposure at 1 mg/kg ([3]; formulation Tween) [ng/g] | Plasma exposure at 1 mg/kg ([3]; formulation Tween) [ng/mL] | Brain exposure at 1 mg/kg ([3]; formulation SpD1) [ng/g] | Plasma exposure at 1 mg/kg ([3]; formulation SpD1) [ng/mL]
Cc1nc2cc(-c3ccc(Cl)cc3)nn2c(N2CCCC(C(=O)O)(C(C)C)C2)c1C(C)C (stereo not drawn) [Example 3, 1-[2-(4-Chlorophenyl)-5-methyl-6-(propan-2-yl)pyrazolo[1,5-a]pyrimidin-7-yl]-3-(propan-2-yl)piperidine-3-carboxylic acid] | 10 to 100 | 58 | 395 | 358 |  | 
CC[C@]1(C(=O)O)CCCN(c2c(C(C)C)c(C)nc3cc(-c4ccc(Cl)cc4)nn23)C1 [Example 5, (3S)-1-[2-(4-Chlorophenyl)-5-methyl-6-(propan-2-yl)pyrazolo[1,5-a]pyrimidin-7-yl]-3-ethylpiperidine-3-carboxylic acid] | 10 to 100 | 37 |  |  | 857 | 1472
CC[C@]1(C(=O)O)CCCN(c2c(C(C)C)c(C)nc3cc(-c4ccc(C(F)(F)F)cc4)nn23)C1 [Example 6, (3S)-3-Ethyl-1-[5-methyl-6-(propan-2-yl)-2-[4-(trifluoromethyl)phenyl]pyrazolo[1,5-a]pyrimidin-7-yl]piperidine-3-carboxylic acid] | 10 to 100 | 90 | 1326 | 1453 |  | 
CC[C@]1(C(=O)O)CCCN(c2c(C(C)C)c(C)nc3cc(-c4ccc(C(F)(F)F)cc4F)nn23)C1 [Example 7, (3S)-3-Ethyl-1-{2-[2-fluoro-4-(trifluoromethyl)phenyl]-5-methyl-6-(propan-2-yl)pyrazolo[1,5-a]pyrimidin-7-yl}piperidine-3-carboxylic acid] | 1 to 10 | 90 | 332 | 506 |  | 
CC[C@@]1(C(=O)O)CCCN(c2c(C(C)C)c(C)nc3cc(-c4ccc(C(F)(F)F)cc4F)nn23)C1 [Example 8, (3R)-3-Ethyl-1-{2-[2-fluoro-4-(trifluoromethyl)phenyl]-5-methyl-6-(propan-2-yl)pyrazolo[1,5-a]pyrimidin-7-yl}piperidine-3-carboxylic acid] |  | 60 | 1193 | 298 |  | 
Cc1nc2cc(-c3ccc(Cl)cc3)nn2c(N2CCC[C@](C(=O)O)(C(C)C)C2)c1C(C)C [Example 9, (3S)-1-[2-(4-Chlorophenyl)-5-methyl-6-(propan-2-yl)pyrazolo[1,5-a]pyrimidin-7-yl]-3-(propan-2-yl)piperidine-3-carboxylic acid] | 10 to 100 | 39 |  |  | 1849 | 1807
Cc1nc2cc(-c3ccc(C(F)(F)F)cc3)nn2c(N2CCC[C@](C(=O)O)(C(C)C)C2)c1C(C)C [Example 10, (3S)-1-[5-Methyl-6-(propan-2-yl)-2-[4-(trifluoromethyl)phenyl]pyrazolo[1,5-a]pyrimidin-7-yl]-3-(propan-2-yl)piperidine-3-carboxylic acid] | 1 to 10 | 30 | 150 | 36 |  | 
Cc1nc2cc(-c3ccc(C(F)(F)F)cc3F)nn2c(N2CCC[C@@](C(=O)O)(C(C)C)C2)c1C(C)C [Example 11, (3R)-1-{2-[2-Fluoro-4-(trifluoromethyl)phenyl]-5-methyl-6-(propan-2-yl)pyrazolo[1,5-a]pyrimidin-7-yl}-3-(propan-2-yl)piperidine-3-carboxylic acid] | 1 to 10 | 15 | 165 | 326 |  | 
Cc1nc2cc(-c3ccc(C(F)(F)F)cc3)nn2c(N2CCC[C@](C)(C(=O)O)C2)c1C(C)C [Example 12, (3S)-3-Methyl-1-[5-methyl-6-(propan-2-yl)-2-[4-(trifluoromethyl)phenyl]pyrazolo[1,5-a]pyrimidin-7-yl]piperidine-3-carboxylic acid] | 1 to 10 | 63 | 218 | 283 |  | 
Cc1nc2cc(-c3ccc(C(F)(F)F)cc3Cl)nn2c(N2CCC[C@](C)(C(=O)O)C2)c1C(C)C [Example 13, (3S)-1-{2-[2-Chloro-4-(trifluoromethyl)phenyl]-5-methyl-6-(propan-2-yl)pyrazolo[1,5-a]pyrimidin-7-yl}-3-methylpiperidine-3-carboxylic acid] | 1 to 10 | 90 | 424 | 843 |  | 
CC[C@]1(C(=O)O)CCCN(c2c(C(C)C)c(C)nc3cc(-c4ccc(C(F)(F)F)c(F)c4)nn23)C1 [Example 14, (3S)-3-Ethyl-1-{2-[3-fluoro-4-(trifluoromethyl)phenyl]-5-methyl-6-(propan-2-yl)pyrazolo[1,5-ala]pyrimidin-7-yl}piperidine-3-carboxylic acid] | 10 to 100 | 47 |  |  | 1962 | 2323
CC[C@]1(C(=O)O)CCCN(c2c(C(C)C)c(C)nc3c(F)c(-c4ccc(C(F)(F)F)cc4)nn23)C1 [Example 15, (3S)-3-Ethyl-1-[3-fluoro-5-methyl-6-(propan-2-yl)-2-[4-(trifluoromethyl)phenyl]pyrazolo[1,5-a]pyrimidin-7-yl]piperidine-3-carboxylic acid] | 1 to 10 | 85 |  |  | 1377 | 1317
COCC1(C(=O)O)CCCN(c2c(C(C)C)c(C)nc3cc(-c4ccc(C(F)(F)F)cc4)nn23)C1 (stereo not drawn) [Example 16] | 10 to 100 | 41 | 28 | 103 |  | 
COCC1(C(=O)O)CCCN(c2c(C(C)C)c(C)nc3cc(-c4ccc(C(F)(F)F)cc4F)nn23)C1 (stereo not drawn) [Example 17, 1-{2-[2-Fluoro-4-(trifluoromethyl)phenyl]-5-methyl-6-(propan-2-yl)pyrazolo[1,5-a]pyrimidin-7-yl}-3-(methoxymethyl)piperidine-3-carboxylic acid] | 1 to 10 | 44 | 144 | 443 |  | 
CCC1(C(=O)O)CCCN(c2c(C(C)C)c(C)nc3cc(-c4ccc(Cl)cc4)nn23)C1 (stereo not drawn) [Example 20] | 10 to 100 |  |  |  | 1093 | 1275
CC[C@@]1(C(=O)O)CCCN(c2c(C(C)C)c(C)nc3cc(-c4ccc(Cl)cc4)nn23)C1 [Example 21] | 10 to 100 |  |  |  |  | 
Cc1nc2cc(-c3ccc(Cl)cc3)nn2c(N2CCC[C@@](C(=O)O)(C(C)C)C2)c1C(C)C [Example 22] | 10 to 100 |  |  |  |  | 
Cc1nc2cc(-c3ccc(Cl)cc3Cl)nn2c(N2CCC[C@](C(=O)O)(C(C)C)C2)c1C(C)C [Example 45] | 10 to 100 |  |  |  |  | 
Cc1nc2cc(-c3ccc(C(F)(F)F)c(F)c3)nn2c(N2CCC[C@@](C(=O)O)(C(C)C)C2)c1C(C)C [Example 58] | 10 to 100 |  |  |  |  | 
Cc1nc2c(F)c(-c3ccc(Cl)cc3)nn2c(N2CCCC(C(=O)O)C2)c1C(C)C (stereo not drawn) [Example 70] |  | 71 |  |  |  | 
